# Laboratory results as given in patent publication US9637496B2, “Substituted 7-azabicycles and their use as orexin receptor modulators” (priority 2013, dated 2017).
# Like-named read-outs stand apart in the source and are kept apart here.
# What was measured:
# [1] = target: rat orexin 1 receptor (Rattus norvegicus (Rat), UniProt P56718); assay: Rat orexin 1 receptor radioligand binding (competitive binding, HEK293 membranes)
# [2] = target: human orexin 2 receptor (Homo sapiens (Human), UniProt O43614); assay: Human orexin 2 receptor radioligand binding ([3H]-EMPA competition, HEK293 membranes)
# [3] = target: human orexin 1 receptor (Homo sapiens (Human), UniProt O43613); assay: Human orexin 1 receptor radioligand binding (competitive binding, CHO membranes)
# [4] = rat orexin 1 receptor, Table 2, averages from between 2-20 runs, read-out: rOX1 Ki
# [5] = human orexin 2 receptor, Table 2, averages from between 2-20 runs, read-out: hOX2 Ki
# [6] = human orexin 1 receptor, Table 2, averages from between 2-20 runs, read-out: hOX1 Ki
# rat orexin 1 receptor, sequence (P56718 whole entry): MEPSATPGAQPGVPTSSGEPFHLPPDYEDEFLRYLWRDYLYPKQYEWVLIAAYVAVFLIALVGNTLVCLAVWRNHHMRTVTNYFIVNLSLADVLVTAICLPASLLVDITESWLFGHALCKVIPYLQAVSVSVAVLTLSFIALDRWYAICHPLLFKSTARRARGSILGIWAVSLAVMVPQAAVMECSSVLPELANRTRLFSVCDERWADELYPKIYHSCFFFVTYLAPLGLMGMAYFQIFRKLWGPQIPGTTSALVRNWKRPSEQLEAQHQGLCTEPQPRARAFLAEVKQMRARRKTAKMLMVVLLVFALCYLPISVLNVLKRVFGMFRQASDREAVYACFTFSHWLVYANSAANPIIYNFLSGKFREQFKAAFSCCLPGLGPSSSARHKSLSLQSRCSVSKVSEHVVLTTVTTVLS
# human orexin 2 receptor, sequence (O43614 whole entry): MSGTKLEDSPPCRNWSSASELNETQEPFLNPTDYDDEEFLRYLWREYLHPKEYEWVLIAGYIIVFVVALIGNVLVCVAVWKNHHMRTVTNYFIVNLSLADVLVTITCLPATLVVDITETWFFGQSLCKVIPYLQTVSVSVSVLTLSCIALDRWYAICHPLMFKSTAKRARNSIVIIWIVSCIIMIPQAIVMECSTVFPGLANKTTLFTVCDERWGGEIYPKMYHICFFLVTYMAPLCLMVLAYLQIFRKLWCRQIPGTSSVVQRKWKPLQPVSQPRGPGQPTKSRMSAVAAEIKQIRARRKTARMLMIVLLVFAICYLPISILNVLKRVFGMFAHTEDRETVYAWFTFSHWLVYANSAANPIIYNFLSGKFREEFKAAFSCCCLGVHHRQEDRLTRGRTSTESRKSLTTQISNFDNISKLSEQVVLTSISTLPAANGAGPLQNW
# human orexin 1 receptor, sequence (O43613 whole entry): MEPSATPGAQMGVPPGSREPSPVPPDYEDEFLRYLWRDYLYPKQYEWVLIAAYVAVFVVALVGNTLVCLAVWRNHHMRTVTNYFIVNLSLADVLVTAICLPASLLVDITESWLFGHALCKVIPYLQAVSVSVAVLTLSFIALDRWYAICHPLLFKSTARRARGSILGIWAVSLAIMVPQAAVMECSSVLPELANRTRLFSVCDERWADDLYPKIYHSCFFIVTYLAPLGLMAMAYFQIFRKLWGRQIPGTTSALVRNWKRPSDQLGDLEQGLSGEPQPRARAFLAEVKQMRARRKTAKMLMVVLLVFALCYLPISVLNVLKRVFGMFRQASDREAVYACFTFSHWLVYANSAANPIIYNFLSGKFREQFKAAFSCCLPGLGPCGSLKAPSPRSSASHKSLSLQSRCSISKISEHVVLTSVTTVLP
Structure (SMILES),"Ki [1, 4] [nM]","Ki [2, 5] [nM]","Ki [3, 6] [nM]",Ki ([1]; read-out: rOX1 Ki) [nM],Ki ([3]; read-out: hOX1 Ki) [nM],further results
"N#Cc1ccc(N[C@@H]2C[C@H]3CC[C@@H]2N3C(=O)c2cccc(F)c2-n2nccn2)nc1 [Example 390, 6-(((1S,2R,4R)-7-(3-fluoro-2-(2H-1,2,3-triazol-2-yl)benzoyl)-7-azabicyclo[2.2.1]heptan-2-yl)amino)nicotinonitrile]",1500,> 10000,1400,–,–,–
"Cc1cccc(C(=O)N2[C@@H]3CC[C@H]2[C@H](Nc2ccc(C#N)cn2)C3)c1-n1nccn1 [Example 391, 6-(((1S,2R,4R)-7-(3-methyl-2-(2H-1,2,3-triazol-2-yl)benzoyl)-7-azabicyclo[2.2.1]heptan-2-yl)amino)nicotinonitrile]",220,4400,315,–,–,–
"N#Cc1ccc(N[C@@H]2C[C@H]3CC[C@@H]2N3C(=O)c2cccc(F)c2-c2ncccn2)nc1 [Example 392, 6-(((1S,2R,4R)-7-(3-fluoro-2-(pyrimidin-2-yl)benzoyl)-7-azabicyclo[2.2.1]heptan-2-yl)amino)nicotinonitrile]",1000,> 10000,1400,–,–,–
"Cc1cccc(C(=O)N2[C@@H]3CC[C@H]2[C@H](Nc2ccc(C#N)cn2)C3)c1-c1ncccn1 [Example 393, 6-(((1S,2R,4R)-7-(3-methyl-2-(pyrimidin-2-yl)benzoyl)-7-azabicyclo[2.2.1]heptan-2-yl)amino)nicotinonitrile]",500,8300,323,–,–,–
"Cc1cccc(C(=O)N2[C@@H]3CC[C@H]2[C@H](Nc2ccc(C#N)cn2)C3)c1-c1ncco1 [Example 394, 6-(((1S,2R,4R)-7-(3-methyl-2-(oxazol-2-yl)benzoyl)-7-azabicyclo[2.2.1]heptan-2-yl)amino)nicotinonitrile]",187,2100,250,–,–,–
"[2H]C1(Nc2cnc(C(F)(F)F)cn2)CC2CCC1N2C(=O)c1cccc(F)c1-c1ncccn1 [Example 395, (3-fluoro-2-(pyrimidin-2-yl)phenyl)((1S,2R,4R)-(2-^2H)-((5-(trifluoromethyl)pyrazin-2-yl)amino)-7-azabicyclo[2.2.1]heptan-7-yl)methanone]",–,–,–,–,–,Ki [1]: 17 nM; Ki [2]: 899 nM; Ki [3]: 14 nM
"O=C(c1ccccc1-c1ncc(F)cn1)N1[C@@H]2CC[C@H]1[C@H](Nc1cnc(C(F)(F)F)cn1)C2 [Example 397, (2-(5-fluoropyrimidin-2-yl)phenyl)((1S,2R,4R)-2-((5-(trifluoromethyl)pyrazin-2-yl)amino)-7-azabicyclo[2.2.1]heptan-7-yl)methanone]",–,985,–,50,24,–
"O=C(c1cccc(F)c1-c1ncc(F)cn1)N1[C@@H]2CC[C@H]1[C@H](Nc1cnc(C(F)(F)F)cn1)C2 [Example 398, (3-fluoro-2-(5-fluoropyrimidin-2-yl)phenyl)((1S,2R,4R)-2-((5-(trifluoromethyl)pyrazin-2-yl)amino)-7-azabicyclo[2.2.1]heptan-7-yl)methanone]",61,2100,81,–,–,–
"Cc1cccc(C(=O)N2[C@@H]3CC[C@H]2[C@H](Nc2cnc(C(F)(F)F)cn2)C3)c1-c1ncc(F)cn1 [Example 399, (2-(5-fluoropyrimidin-2-yl)-3-methylphenyl)((1S,2R,4R)-2-((5-(trifluoromethyl)pyrazin-2-yl)amino)-7-azabicyclo[2.2.1]heptan-7-yl)methanone]",–,300,–,10,9,–
"O=C(c1ccccc1-c1ncccn1)N1[C@@H]2CC[C@H]1[C@H](Nc1cnc(C(F)(F)F)cn1)C2 [Example 400, (2-(pyrimidin-2-yl)phenyl)((1S,2R,4R)-2-((5-(trifluoromethyl)pyrazin-2-yl)amino)-7-azabicyclo[2.2.1]heptan-7-yl)methanone]",–,571,–,27,19,–
"Cc1cnc(-n2nccn2)c(C(=O)N2[C@@H]3CC[C@H]2[C@H](Nc2cnc(C(F)(F)F)cn2)C3)c1 [Example 401, (5-methyl-2-(2H-1,2,3-triazol-2-yl)pyridin-3-yl)((1S,2R,4R)-2-((5-(trifluoromethyl)pyrazin-2-yl)amino)-7-azabicyclo[2.2.1]heptan-7-yl)methanone]",196,> 10000,394,–,–,–
"Cc1ccc(-c2ncccn2)c(C(=O)N2[C@@H]3CC[C@H]2[C@H](Nc2cnc(C(F)(F)F)cn2)C3)n1 [Example 403, (6-methyl-3-(pyrimidin-2-yl)pyridin-2-yl)((1S,2R,4R)-2-((5-(trifluoromethyl)pyrazin-2-yl)amino)-7-azabicyclo[2.2.1]heptan-7-yl)methanone]",–,431,–,88,67,–
"Cc1cnc(C(=O)N2[C@@H]3CC[C@H]2[C@H](Nc2cnc(C(F)(F)F)cn2)C3)c(-c2ncccn2)c1 [Example 405, (5-methyl-3-(pyrimidin-2-yl)pyridin-2-yl)((1S,2R,4R)-2-((5-(trifluoromethyl)pyrazin-2-yl)amino)-7-azabicyclo[2.2.1]heptan-7-yl)methanone]",–,–,–,53,59,Ki ([2]; read-out: hOX2 Ki): > 10000 nM
"O=C(c1ncccc1-c1ncccn1)N1[C@@H]2CC[C@H]1[C@H](Nc1cnc(C(F)(F)F)cn1)C2 [Example 406, (3-(pyrimidin-2-yl)pyridin-2-yl)((1S,2R,4R)-2-((5-(trifluoromethyl)pyrazin-2-yl)amino)-7-azabicyclo[2.2.1]heptan-7-yl)methanone]",59,972,44,–,–,–
"O=C(c1ccccc1-c1ccccc1)N1[C@@H]2CC[C@H]1[C@H](Nc1cnc(C(F)(F)F)cn1)C2 [Example 407, [1,1′-biphenyl]-2-yl((1S,2R,4R)-2-((5-(trifluoromethyl)pyrazin-2-yl)amino)-7-azabicyclo[2.2.1]heptan-7-yl)methanone]",–,104,–,18,17,–
"O=C(c1cccc(F)c1-c1ccccn1)N1[C@@H]2CC[C@H]1[C@H](Nc1cnc(C(F)(F)F)cn1)C2 [Example 408, (3-fluoro-2-(pyridin-2-yl)phenyl)((1S,2R,4R)-2-((5-(trifluoromethyl)pyrazin-2-yl)amino)-7-azabicyclo[2.2.1]heptan-7-yl)methanone]",–,150,–,12,19,–
"O=C(c1cc(F)ccc1-c1ncco1)N1[C@@H]2CC[C@H]1[C@H](Nc1cnc(C(F)(F)F)cn1)C2 [Example 410, (5-fluoro-2-(oxazol-2-yl)phenyl)((1S,2R,4R)-2-((5-(trifluoromethyl)pyrazin-2-yl)amino)-7-azabicyclo[2.2.1]heptan-7-yl)methanone]",–,1000,–,67,90,–
"O=C(c1c(F)cccc1-c1ncco1)N1[C@@H]2CC[C@H]1[C@H](Nc1cnc(C(F)(F)F)cn1)C2 [Example 411, (2-fluoro-6-(oxazol-2-yl)phenyl)((1S,2R,4R)-2-((5-(trifluoromethyl)pyrazin-2-yl)amino)-7-azabicyclo[2.2.1]heptan-7-yl)methanone]",–,622,–,53,31,–
"Cc1noc(-c2cc(F)ccc2C(=O)N2[C@@H]3CC[C@H]2[C@H](Nc2cnc(C(F)(F)F)cn2)C3)n1 [Example 412, (4-fluoro-2-(3-methyl-1,2,4-oxadiazol-5-yl)phenyl)((1S,2R,4R)-2-((5-(trifluoromethyl)pyrazin-2-yl)amino)-7-azabicyclo[2.2.1]heptan-7-yl)methanone]",126,4800,329,–,–,–
